Values quoted from earlier work, collected in patent US20170216217A1, “SPHERICAL MICROCAPSULES WITH ENHANCED ORAL BIOAVAILABILITY” (I2O Pharma Ltd., priority 2016, published 2017).

Oral bioavailability: 27%
SMILES: CN1CCN(C2=Nc3cc(Cl)ccc3Nc3ccccc32)CC1 [Clozapine]
